Test results as given in the supplement of paper PMC13380429.

Key:
Settings in all cases: 72 h
Caco-2 [1] = assay: cell viability relative to DMSO; higher = less toxic
Calu-3 [2] = assay: as above
HepG2 [3] = assay: as above
U2OS [4] = assay: as above
Vero E6 [5] = assay: as above
Caco-2 [6] = assay: relative viability EC50 (midpoint between 100% and the lowest measured viability); higher = less toxic
Calu-3 [7] = assay: as above
HepG2 [8] = assay: as above
U2OS [9] = assay: as above
Vero E6 [10] = assay: as above
Caco-2 [11] = assay: drug sensitivity score (DSS) for viability; higher = more toxic; extreme values may be limits of the assay
Calu-3 [12] = assay: as above
HepG2 [13] = assay: as above
U2OS [14] = assay: as above
Vero E6 [15] = assay: as above

| Structure (SMILES) | cell viability (Caco-2 [1]; 1 nM) [%] | cell viability (Caco-2 [1]; 10 nM) [%] | cell viability (Caco-2 [1]; 100 nM) [%] | cell viability (Caco-2 [1]; 1000 nM) [%] | cell viability (Caco-2 [1]; 10000 nM) [%] | cell viability (Calu-3 [2]; 1 nM) [%] | cell viability (Calu-3 [2]; 10 nM) [%] | cell viability (Calu-3 [2]; 100 nM) [%] | cell viability (Calu-3 [2]; 1000 nM) [%] | cell viability (Calu-3 [2]; 10000 nM) [%] | cell viability (HepG2 [3]; 1 nM) [%] | cell viability (HepG2 [3]; 10 nM) [%] | cell viability (HepG2 [3]; 100 nM) [%] | cell viability (HepG2 [3]; 1000 nM) [%] | cell viability (HepG2 [3]; 10000 nM) [%] | cell viability (U2OS [4]; 1 nM) [%] | cell viability (U2OS [4]; 10 nM) [%] | cell viability (U2OS [4]; 100 nM) [%] | cell viability (U2OS [4]; 1000 nM) [%] | cell viability (U2OS [4]; 10000 nM) [%] | cell viability (Vero E6 [5]; 1 nM) [%] | cell viability (Vero E6 [5]; 10 nM) [%] | cell viability (Vero E6 [5]; 100 nM) [%] | cell viability (Vero E6 [5]; 1000 nM) [%] | cell viability (Vero E6 [5]; 10000 nM) [%] | relative viability EC50 (Caco-2 [6]) [nM] | relative viability EC50 (Calu-3 [7]) [nM] | relative viability EC50 (HepG2 [8]) [nM] | relative viability EC50 (U2OS [9]) [nM] | relative viability EC50 (Vero E6 [10]) [nM] | drug sensitivity score (Caco-2 [11]) | drug sensitivity score (Calu-3 [12]) | drug sensitivity score (HepG2 [13]) | drug sensitivity score (U2OS [14]) | drug sensitivity score (Vero E6 [15]) |
| --- | --- | --- | --- | --- | --- | --- | --- | --- | --- | --- | --- | --- | --- | --- | --- | --- | --- | --- | --- | --- | --- | --- | --- | --- | --- | --- | --- | --- | --- | --- | --- | --- | --- | --- | --- |
| CC1(C)C(=O)NC2=C1C(=O)C(=O)c1ccccc12 [BVT-948] | 92.1 | 104 | 99.6 | 86.8 | 0.9 | 98 | 101 | 104 | 102 | 20.3 | 97.5 | 95.4 | 88.7 | 94.8 | 21.3 | 101 | 98 | 95.8 | 100 | 0.1 | 98.3 | 102 | 104 | 97.9 | 19.6 | 2090 | 3340 | 2630 | 3170 | 2970 | 7.7 | 4.2 | 5.1 | 5.6 | 4.7 |
| C[C@H]1C[C@H]2[C@@H]3CCC4=CC(=O)C=C[C@]4(C)[C@H]3C(=O)C[C@]2(C)[C@@]1(O)C(=O)CO [Betapar (Meprednisone)] | 86.1 | 91.1 | 87.4 | 103 | 94.8 | 92.9 | 93.2 | 91.5 | 91 | 97.8 | 83.6 | 97.3 | 95.5 | 95.9 | 86.5 | 97.6 | 98.3 | 96 | 98.2 | 95.1 | 103 | 102 | 101 | 99.7 | 97.4 | > 10000 | > 10000 | > 10000 | > 10000 | > 10000 | 0 | 0 | 0 | 0 | 0 |
| COc1cc2nc(N3CCC(N4CCCCC4)CC3)nc(NC3CCCCCC3)c2cc1OC [C-021] | 101 | 101 | 108 | 93.4 | 23.4 | 98.4 | 100 | 94.7 | 90 | 4.2 | 108 | 93.7 | 99.4 | 101 | -0.2 | 99.4 | 98.7 | 99.1 | 94.6 | 16.7 | 96.8 | 102 | 99.1 | 97.5 | 0.8 | 2470 | 2310 | 3240 | 2650 | 2980 | 5.3 | 6.9 | 5.5 | 5.4 | 5.9 |
